Measured values: publication PMC12194305, “Assessing Bioconcentration and Biotransformation of BDE-47 In Vitro: The Relevance of Bioavailable and Intracellular Concentrations” (Journal of Xenobiotics, 2025)

System: ZFL cells
Experiment: Cell exposure for bioaccumulation: Ccell, Cmedium and in vitro BCF (ratio and toxicokinetic fit)
Format: cell-based, zebrafish
Conditions: for BCFexp, 24 h / BCFexp, 48 h / BCFexp, 72 h: Ccell,exp/Cmedium
Method: A total of 2 × 10^6 ZFL cells were plated in P100 glass dishes and incubated for 24 h under standard culture conditions. Subsequently, the culture medium was replaced with a contaminated medium, which, according to the cell viability assay, maintained viability above 70% by the end of the exposure period (Section 2.3). Cells were exposed to 1.8 and 2.6 mg⋅L^−1 for 24, 48 and 72 h, in two independent experiments. Parallel experiments were conducted under identical conditions to assess losses: one set included cells without contaminated medium, and another consisted of contaminated medium without cells (“no cells”). The obtained pellets were collected from all exposure time, dried under a gentle stream of nitrogen and weighed on a precision analytical balance (±0.00001 g). Finally, the dried cell pellets and their corresponding medium collected at all exposure times, including the starting medium (“t = 0 h”), were stored at −20 °C until analysis.
Extraction of BDE-47 and its metabolites was performed simultaneously for each of the samples, cells, and exposure media. Finally, 500 μL of exposure medium was extracted with 500 μL of hexane: MTBE mixture (1:1) shaken vigorously with a vortex for 30 s. For cells, the pellet obtained (~5 mg) was treated with same solvents but assisted with an ultrasound probe for 1 min at 30% of amplitude and a pulse on/off, with 2 s/5 s for cell samples. The internal standards (IS) BDE-99 and TCS had been previously added. The mixture was centrifuged for 10 min at 10,000 rpm. The organic phase was separated, and the extraction step was repeated. Remaining extracts were evaporated to dryness under a gentle stream of nitrogen and reconstituted in 200 μL isooctane. A total of 80 μL of the volume obtained was derivatized with 20 μL of MTBSTFA at 70 °C for 30 min in the oven and injected into GC-μECD-MS for the OH-BDE quantification. PBDEs and MeO-BDEs were determined by direct injection of the remaining volume of isooctane extracts into the GC-µECD-MS, because PBDEs are not stable after the derivatization process. Due to the difference in concentration in the samples of the metabolites and BDE-47, a double determination was performed and diluted with isooctane for the detection of the latter, so that it was interpolated on the same calibration curve.
The GC–MS-µECD system was used for the separation and determination of BDE-47 and its metabolites. The MS was used for the identification and the µECD for their quantification. Both detectors operate simultaneously, thanks to the use of a flow splitter placed at the end of the chromatographic column. Sample (1 μL) were injected in splitless mode at 280 °C. Helium was used as carrier gas at a constant pressure of 22 psi. Column temperature was programmed to increase from 130 °C (1 min) to 222 °C (1 min) at a rate of 90 °C·min^−1, then to 245 °C (1 min) at 1 °C·min^−1 and finally to 280 °C (8 min) at 45 °C·min^−1. The μECD temperature was set at 320 °C and nitrogen was used as makeup gas (30 mL·min^−1). The flow ratio of the splitter was 1:1, thanks to the helium input and the restrictor length of each detector, according to the manual supplied by Agilent Technologies. m/z values for the SIM program are collected in Table S1.
The first quantitative estimation of BCF was carried out according to the definition of BCF in the official OECD 305 guideline; that is, the ratio between the chemical concentration in the cells (Ccell) and the chemical concentration of the surrounding medium (Cmedium). As explained earlier, Ccell can be determined experimentally (Ccell,exp) or by MBM (Ccell,MBM). Both these terms can be related to the experimentally determined concentration in the medium (Cmedium), the free concentration experimentally determined (Cfree,exp) or the free concentration estimated using MBM (Cfree,MBM). […]

[1] = Cnominal 1.8 mg·L^−1, first-order toxicokinetic fit k1/k2

Brc1ccc(Oc2ccc(Br)cc2Br)c(Br)c1 [BDE-47, 2,2′,4,4′-tetrabromodiphenyl ether]
Recovery in the mass balance (24 h, 1.8 mg·L^−1, BDE-47 plus metabolites in cells, medium and losses): 77% | Recovery in the mass balance (24 h, 2.6 mg·L^−1): 79% | Recovery in the mass balance (48 h, 1.8 mg·L^−1): 70% | Recovery in the mass balance (48 h, 2.6 mg·L^−1): 82% | Recovery in the mass balance (72 h, 1.8 mg·L^−1): 74% | Recovery in the mass balance (72 h, 2.6 mg·L^−1): 97% | average decrease of Cmedium over time from nominal concentration (Cnominal 1.8 mg·L^−1): 79% | BCFexp, 24 h (Cnominal 1.8 mg·L^−1): 50 L/kg | BCFexp, 48 h (Cnominal 1.8 mg·L^−1): 83 L/kg | BCFexp, 72 h (Cnominal 1.8 mg·L^−1): 100 L/kg | BCFk Ccell exp/Cfree,exp [1]: 74,300 L·kg^−1 | BCFk Ccell exp/Cw [1]: 30 L/kg | average decrease of Cmedium over time from nominal concentration (Cnominal 2.6 mg·L^−1): 33% | BCFexp, 24 h (Cnominal 2.6 mg·L^−1): 51 L/kg | BCFexp, 48 h (Cnominal 2.6 mg·L^−1): 55 L/kg | BCFexp, 72 h (Cnominal 2.6 mg·L^−1): 80 L/kg | BCFk Ccell exp/Cfree,exp (Cnominal 2.6 mg·L^−1, first-order toxicokinetic fit k1/k2): 63,435 L·kg^−1
